Structures are written as SMILES.

The data set in a line: Effect of acid addition on pH and available chlorine of urea-stabilized halogen-containing bactericide. Format: physicochemical. The settings on record: for Solution pH / Available chlorine: final 30 ml; for Available chlorine: blank 2550. How it is done: Then, 5 beakers were provided and separately added with 1 ml of the prepared urea-stabilized halogen-containing bactericide. After that, 29 ml of water was added to the first beaker for dilution (blank control), while the other 4 beakers were separately added with 20% sulfuric acid (0.5 ml or 1.0 ml) or 20% citric acid (1.0 ml or 2.0 ml), and added with water to reach a final volume of 30 ml. Finally, pH values and available chlorine contents (ppm) of solutions in the 5 beakers were measured.
Further, 10% aminosulfonic acid (which was used to replace sulfuric acid or citric acid, which dosage was 1.1 ml or 1.24 ml) was used to repeat the above experiments. […] In addition, after aminosulfonic acid was added, pH values and available chlorine contents (ppm) in solutions were measured, and after standing for 40 min, 120 min, and 240 min, available chlorine contents (ppm) of solutions were measured again. […]

[1] abbreviates: acid volume 1.0 ml to 1 ml urea-stabilized bactericide (12.5% hypochlorite).
Setting [2] is: acid volume 2.0 ml to 1 ml urea-stabilized bactericide (12.5% hypochlorite).
The mark [3] stands for this setting: acid volume 0.5 ml to 1 ml urea-stabilized bactericide (12.5% hypochlorite).

For the compound `O=C(O)CC(O)(CC(=O)O)C(=O)O` [20% citric acid, citric acid, reference compound], under setting [1], the “Solution pH” value was found to be 7.75 and the Available chlorine was found to be 1250 ppm. Also, under setting [2], the “Solution pH” value is on record as 3.65 and the Available chlorine is reported as 725 ppm.

For `NS(=O)(=O)O` [Aminosulfonic acid, aminosulfonic acid], the “Solution pH after mixing” value came to 8.46 (10% acid 1.1 ml to 1 ml urea-stabilized bactericide (8.5% hypochlorite)) and 5.96 (10% acid 1.24 ml to 1 ml urea-stabilized bactericide (8.5% hypochlorite)). The “Available chlorine after mixing” value by setting is: (10% acid 1.1 ml, 0 min) 1275 ppm; (10% acid 1.1 ml, 40 min) 1275 ppm; (10% acid 1.1 ml, 120 min) 1325 ppm; (10% acid 1.1 ml, 240 min) 1400 ppm; (10% acid 1.24 ml, 0 min) 1300 ppm; (10% acid 1.24 ml, 40 min) 1325 ppm. Further, the “Available chlorine after mixing” value reads like this: (10% acid 1.24 ml, 120 min) 1475 ppm; (10% acid 1.24 ml, 240 min) 1250 ppm. The “Time for which available chlorine content of solution is maintained” value (urea-stabilized bactericide with pH regulated by aminosulfonic acid) is reported as “at least 240 min”.

Turning to `O=S(=O)(O)O` [20% sulfuric acid, sulfuric acid, reference compound], under setting [3], the “Solution pH” value worked out at 7.35 and the Available chlorine worked out at 750 ppm. Further, under setting [1], the “Solution pH” value is reported as 2.15 and the Available chlorine is listed as 455 ppm.

These data come from patent publication US20170314205A1, “Microorganism Control System and Method of Using the Same” (Ecolab USA Inc., priority 2014, published 2017).
